# According to ChEMBL document CHEMBL5528083, “Discovery of a Novel Thienopyrimidine Compound as a Urate Transporter 1 and Glucose Transporter 9 Dual Inhibitor with Improved Efficacy and Favorable Druggability” (J Med Chem, 2024):
# Legend:
# Mus musculus [1] = species: Mus musculus; test: Reduction in serum uric acid level in acute hyperuricemia state Kunming mouse model assessed as SUA level by measuring decrease ratio relative to control; type: functional; set-up: concentration or dose not given beside the values
# Mus musculus [2] = species: Mus musculus; test: Reduction in serum uric acid level in acute hyperuricemia state Kunming mouse model assessed as SUA level; type: functional
# [3] = target: Xanthine dehydrogenase/oxidase (Bos taurus, UniProt P80457); test: Inhibition of bovine XOD using xanthine as substrate assessed as inhibitory ratio at 10 uM by spectrophotometric analysis relative to control; conditions: cattle
# [4] = target: T1, Solute carrier family 22 member 12 (Homo sapiens, UniProt Q96S37); test: Inhibition of human URAT1 expressed in HEK293T cells using 14C- uric acid assessed as uric acid absorption by measuring intracellular liquid radiation value by liquid scintillation counting analysis; type: cell-based
# T1 sequence (Q96S37 whole entry): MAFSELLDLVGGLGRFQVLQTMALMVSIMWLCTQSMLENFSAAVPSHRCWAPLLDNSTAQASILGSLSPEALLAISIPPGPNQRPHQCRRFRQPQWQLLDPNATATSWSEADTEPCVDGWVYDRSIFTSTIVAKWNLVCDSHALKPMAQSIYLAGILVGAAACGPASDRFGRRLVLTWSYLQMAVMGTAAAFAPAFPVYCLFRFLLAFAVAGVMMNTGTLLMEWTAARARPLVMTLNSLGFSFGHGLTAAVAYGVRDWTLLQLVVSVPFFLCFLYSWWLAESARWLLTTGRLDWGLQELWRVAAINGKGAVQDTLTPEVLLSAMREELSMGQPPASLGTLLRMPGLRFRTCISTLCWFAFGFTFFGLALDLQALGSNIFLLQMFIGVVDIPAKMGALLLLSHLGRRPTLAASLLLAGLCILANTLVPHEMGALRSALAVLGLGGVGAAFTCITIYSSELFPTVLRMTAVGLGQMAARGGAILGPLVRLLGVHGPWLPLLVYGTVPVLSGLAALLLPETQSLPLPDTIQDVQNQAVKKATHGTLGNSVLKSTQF
# [5] = target: T2, Solute carrier family 2, facilitated glucose transporter member 9 (Mus musculus) (UniProt Q3T9X0); test: Inhibition of mouse EGFP-tagged GLUT9 expressed in HEK293T cells assessed as inhibition rate by measuring relative current at 5 uM by patch clamp electrophysiological analysis relative to control; type: cell-based; set-up: scale not given: the % may be the effect or the level left
# T2 sequence (whole entry): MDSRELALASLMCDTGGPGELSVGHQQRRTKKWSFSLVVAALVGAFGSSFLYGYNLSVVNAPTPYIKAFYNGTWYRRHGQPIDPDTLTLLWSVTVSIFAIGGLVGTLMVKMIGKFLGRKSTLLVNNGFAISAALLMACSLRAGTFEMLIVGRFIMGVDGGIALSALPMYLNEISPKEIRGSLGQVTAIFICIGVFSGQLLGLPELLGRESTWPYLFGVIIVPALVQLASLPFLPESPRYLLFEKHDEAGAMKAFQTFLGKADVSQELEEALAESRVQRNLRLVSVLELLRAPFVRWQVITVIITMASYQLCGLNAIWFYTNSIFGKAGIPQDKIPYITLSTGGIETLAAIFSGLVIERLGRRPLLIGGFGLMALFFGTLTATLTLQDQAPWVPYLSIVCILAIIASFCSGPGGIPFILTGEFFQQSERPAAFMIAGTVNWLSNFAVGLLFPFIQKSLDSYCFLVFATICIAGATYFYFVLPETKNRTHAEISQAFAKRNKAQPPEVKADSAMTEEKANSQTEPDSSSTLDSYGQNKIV
# Mus musculus [6] = test: Reduction in serum uric acid level in acute hyperuricemia state Kunming mouse model assessed as SUA level at 2 mg/kg, po (reference value: 1037 +/- 106.59 uM); type: functional
# Chain of Xanthine dehydrogenase/oxidase (P80457 whole entry): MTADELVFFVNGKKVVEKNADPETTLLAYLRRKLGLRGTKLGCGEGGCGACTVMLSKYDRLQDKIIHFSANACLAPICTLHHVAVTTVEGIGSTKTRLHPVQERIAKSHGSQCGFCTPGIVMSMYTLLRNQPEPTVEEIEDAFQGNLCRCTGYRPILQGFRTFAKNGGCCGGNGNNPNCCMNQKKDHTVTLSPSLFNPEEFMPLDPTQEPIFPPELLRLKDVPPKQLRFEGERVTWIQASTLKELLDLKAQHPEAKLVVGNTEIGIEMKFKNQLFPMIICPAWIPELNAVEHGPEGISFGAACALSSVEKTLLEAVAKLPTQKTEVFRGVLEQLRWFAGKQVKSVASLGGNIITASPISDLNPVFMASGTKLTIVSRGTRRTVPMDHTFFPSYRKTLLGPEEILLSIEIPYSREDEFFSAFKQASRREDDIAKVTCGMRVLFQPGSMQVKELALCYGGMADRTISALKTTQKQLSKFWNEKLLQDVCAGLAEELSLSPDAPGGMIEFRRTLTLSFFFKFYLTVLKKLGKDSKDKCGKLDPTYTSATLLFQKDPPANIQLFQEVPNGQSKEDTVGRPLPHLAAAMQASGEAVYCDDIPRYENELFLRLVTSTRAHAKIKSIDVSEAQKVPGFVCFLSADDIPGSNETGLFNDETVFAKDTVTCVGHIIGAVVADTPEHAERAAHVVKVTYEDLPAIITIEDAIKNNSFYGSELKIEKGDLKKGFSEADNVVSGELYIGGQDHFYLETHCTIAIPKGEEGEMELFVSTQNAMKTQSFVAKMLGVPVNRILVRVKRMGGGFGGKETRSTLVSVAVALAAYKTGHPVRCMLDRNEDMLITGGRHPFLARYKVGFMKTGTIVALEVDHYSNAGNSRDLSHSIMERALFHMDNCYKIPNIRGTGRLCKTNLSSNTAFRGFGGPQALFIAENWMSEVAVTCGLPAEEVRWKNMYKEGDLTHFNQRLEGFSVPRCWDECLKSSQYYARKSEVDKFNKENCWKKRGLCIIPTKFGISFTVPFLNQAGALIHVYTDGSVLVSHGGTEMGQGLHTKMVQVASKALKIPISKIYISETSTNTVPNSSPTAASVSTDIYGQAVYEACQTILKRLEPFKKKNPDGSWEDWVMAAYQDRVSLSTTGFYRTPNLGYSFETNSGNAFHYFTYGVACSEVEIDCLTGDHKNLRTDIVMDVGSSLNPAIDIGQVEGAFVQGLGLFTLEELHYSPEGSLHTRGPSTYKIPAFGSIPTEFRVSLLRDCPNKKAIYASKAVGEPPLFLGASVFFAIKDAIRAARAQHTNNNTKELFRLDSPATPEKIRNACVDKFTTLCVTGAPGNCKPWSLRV
SMILES,Activity (Mus musculus [1]),Activity (Mus musculus [2]),further results
O=C(O)C1(Sc2nccc(Nc3ccc(C4CC4)c4ccccc34)n2)CCC1,58.7%,537.8 µM,–
O=C(O)CSc1nc2c(c(Nc3ccc(C4CC4)c4ccccc34)n1)SCC2,88.8%,285.8 µM,–
CC(Sc1nc(Nc2ccc(C3CC3)c3ccccc23)c2ccccc2n1)C(=O)O (stereo not given),21.5%,911.8 µM,–
Cc1nc(-c2ccc(OCC(C)C)c(C#N)c2)sc1C(=O)O [FEBUXOSTAT],–,–,inhibition at 10 µM [3]: 102%
O=C(O)CSc1nc(Nc2ccc(C3CC3)c3ccccc23)c2sccc2n1,1.1%,1062.6 µM,–
O=C(O)C1(Sc2nc3c(c(Nc4ccc(C5CC5)c5ccccc45)n2)CCC3)CCC1,50.3%,614.6 µM,–
CC(C)(Sc1nc(Nc2ccc(C3CC3)c3ccccc23)c2ccsc2n1)C(=O)O,66.2%,447.2 µM,–
CC(C)(Sc1nccc(Nc2ccc(C3CC3)c3ccccc23)n1)C(=O)O,91%,212.6 µM,IC50 [4]: 2.51 µM
CC(C)(Sc1nc(Nc2ccc(C3CC3)c3ccccc23)c2sccc2n1)C(=O)O,68.5%,425.4 µM,–
O=C(O)CCSc1nc(Nc2ccc(C3CC3)c3ccccc23)c2ccccc2n1,84.7%,276.2 µM,–
CC(Sc1nc(Nc2ccc(C3CC3)c3ccccc23)c2ccc(F)cc2n1)C(=O)O (stereo not given),60.7%,482.4 µM,–
O=C(O)CCSc1nc2c(c(Nc3ccc(C4CC4)c4ccccc34)n1)CCC2,95.7%,226.6 µM,IC50 [4]: 3.75 µM
O=C(O)C1(Sc2nc(Nc3ccc(C4CC4)c4ccccc34)c3ccsc3n2)CCC1,35.8%,734.6 µM,–
O=C(O)C1(Sc2nc3c(c(Nc4ccc(C5CC5)c5ccccc45)n2)SCC3)CCC1,3.42%,1014.8 µM,–
O=C(O)CCCSc1nc(Nc2ccc(C3CC3)c3ccccc23)c2ccc(F)cc2n1,9.9%,944.6 µM,–
O=C(O)CSc1nc(Nc2ccc(C3CC3)c3ccccc23)c2ccccc2n1,82.9%,294.2 µM,–
O=C(O)C1(Sc2nc(Nc3ccc(C4CC4)c4ccccc34)c3ccc(F)cc3n2)CCC1,33%,734.6 µM,–
COc1cc2nc(SCCC(=O)O)nc(Nc3ccc(C4CC4)c4ccccc34)c2cc1OC,23.6%,828 µM,–
CC(C)(Sc1nc(Nc2ccc(C3CC3)c3ccccc23)c2ccccc2n1)C(=O)O,92.2%,200.8 µM,IC50 [4]: 4.35 µM

SMILES,Activity (Mus musculus [1]),Activity (Mus musculus [2]),further results
CC(Sc1nc2c(c(Nc3ccc(C4CC4)c4ccccc34)n1)COC2)C(=O)O (stereo not given),4.5%,994.41 µM,–
O=C(O)C1(Sc2nc3c(c(Nc4ccc(C5CC5)c5ccccc45)n2)COC3)CCC1,1.5%,1021.4 µM,–
COc1cc2nc(SCCCC(=O)O)nc(Nc3ccc(C4CC4)c4ccccc34)c2cc1OC,62.3%,465.4 µM,–
CC(C)(Sc1nc2c(c(Nc3ccc(C4CC4)c4ccccc34)n1)SCC2)C(=O)O,87.5%,297.2 µM,–
O=C(O)CCCSc1nc(Nc2ccc(C3CC3)c3ccccc23)c2ccccc2n1,64.6%,478.2 µM,–
O=C(O)CSc1nc(Nc2ccc(C3CC3)c3ccccc23)c2ccsc2n1,74.5%,368.2 µM,–
CC(C)(Sc1nc2c(c(Nc3ccc(C4CC4)c4ccccc34)n1)CCC2)C(=O)O,92.2%,256.6 µM,IC50 [4]: 3.96 µM
CC(Sc1nccc(Nc2ccc(C3CC3)c3ccccc23)n1)C(=O)O (stereo not given),88.9%,234 µM,–
CC(Sc1nc2c(c(Nc3ccc(C4CC4)c4ccccc34)n1)SCC2)C(=O)O (stereo not given),–,1114.8 µM,–
CC(Sc1nc2c(c(Nc3ccc(C4CC4)c4ccccc34)n1)CCC2)C(=O)O (stereo not given),52.6%,594.6 µM,–
O=C(O)C1(Sc2nc(Nc3ccc(C4CC4)c4ccccc34)c3ccccc3n2)CCC1,51.6%,608.8 µM,–
COc1cc2nc(SC3(C(=O)O)CCC3)nc(Nc3ccc(C4CC4)c4ccccc34)c2cc1OC,89.1%,214.4 µM,–
O=C(O)CSc1nc(Nc2ccc(C3CC3)c3ccccc23)c2ccc(F)cc2n1,90.6%,210.4 µM,–
O=C(O)CCSc1nc2c(c(Nc3ccc(C4CC4)c4ccccc34)n1)COC2,26.1%,797.6 µM,–
CC(Sc1nc(Nc2ccc(C3CC3)c3ccccc23)c2ccsc2n1)C(=O)O (stereo not given),20%,884 µM,–
O=C(O)CCSc1nc(Nc2ccc(C3CC3)c3ccccc23)c2sccc2n1,91.3%,209.6 µM,IC50 [4]: 2.75 µM
O=C(O)CCSc1nccc(Nc2ccc(C3CC3)c3ccccc23)n1,24.6%,880.2 µM,–
O=C(O)CSc1nc2c(c(Nc3ccc(C4CC4)c4ccccc34)n1)COC2,2.3%,1014.4 µM,–
CC(Sc1nc(Nc2ccc(C3CC3)c3ccccc23)c2sccc2n1)C(=O)O (stereo not given),69.9%,412 µM,–

SMILES,Activity (Mus musculus [1]),Activity (Mus musculus [2]),further results
O=C(O)CCCSc1nc2c(c(Nc3ccc(C4CC4)c4ccccc34)n1)COC2,–,1120.8 µM,–
COc1cc2nc(SCC(=O)O)nc(Nc3ccc(C4CC4)c4ccccc34)c2cc1OC,91.3%,193.4 µM,IC50 [4]: 4.86 µM
O=C(O)CSc1nccc(Nc2ccc(C3CC3)c3ccccc23)n1,68.2%,442.4 µM,–
O=C(O)CCCSc1nccc(Nc2ccc(C3CC3)c3ccccc23)n1,92.4%,198.2 µM,IC50 [4]: 4.73 µM
O=C(O)C1(Sc2nc(Nc3ccc(C4CC4)c4ccccc34)c3sccc3n2)CCC1,34.8%,744 µM,–
CCc1oc2ccccc2c1C(=O)c1cc(Br)c(O)c(Br)c1 [BENZBROMARONE],37.3%,753.2 µM,Activity [5]: 74.7%
O=C(O)CCCSc1nc2c(c(Nc3ccc(C4CC4)c4ccccc34)n1)SCC2,62%,514.4 µM,–
O=C(O)CCSc1nc(Nc2ccc(C3CC3)c3ccccc23)c2ccsc2n1,92.7%,196.4 µM,–
CC(Sc1nc2ncccc2n1-c1ccc(C2CC2)c2ccccc12)C(=O)O (stereo not given),–,–,Activity (Mus musculus [6]): 706.25 µM
O=C(O)CSc1nc2c(c(Nc3ccc(C4CC4)c4ccccc34)n1)CCC2,24.9%,831.4 µM,–
COc1cc2nc(SC(C)C(=O)O)nc(Nc3ccc(C4CC4)c4ccccc34)c2cc1OC (stereo not given),1%,1039.4 µM,–
O=C(O)CCSc1nc(Nc2ccc(C3CC3)c3ccccc23)c2ccc(F)cc2n1,13.5%,912.4 µM,–
CC(C)(Sc1nc(Nc2ccc(C3CC3)c3ccccc23)c2ccc(F)cc2n1)C(=O)O,82.4%,284.8 µM,–
O=C(O)CCSc1nc2c(c(Nc3ccc(C4CC4)c4ccccc34)n1)SCC2,3.54%,1013.8 µM,–
CC(C)(Sc1nc2c(c(Nc3ccc(C4CC4)c4ccccc34)n1)COC2)C(=O)O,–,1040 µM,–
O=C(O)CCCSc1nc2c(c(Nc3ccc(C4CC4)c4ccccc34)n1)CCC2,22.6%,851 µM,–
COc1cc2nc(SC(C)(C)C(=O)O)nc(Nc3ccc(C4CC4)c4ccccc34)c2cc1OC,7.8%,976.2 µM,–
O=C(O)CCCSc1nc(Nc2ccc(C3CC3)c3ccccc23)c2ccsc2n1,89.6%,225 µM,–
